# PubChem BioAssay (NCI)
#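 Cultured in 96-well plates, cells were exposed to test compound for 48 hours across five concentrations. TGI denotes the concentration required for complete inhibition of growth.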
# Legend:
# Test in all cases: NCI tumour cell line growth inhibition, 48 h
# 786-0 renal = tested on: 786-0 renal
# A549 NSCLC = tested on: A549 NSCLC
# ACHN renal = tested on: ACHN renal
# BT-549 breast = tested on: BT-549 breast
# CAKI-1 renal = tested on: CAKI-1 renal
# CCRF-CEM leukemia = tested on: CCRF-CEM leukemia
# COLO 205 colon = tested on: COLO 205 colon
# DU-145 prostate = tested on: DU-145 prostate
# EKVX NSCLC = tested on: EKVX NSCLC
# HCC-2998 colon = tested on: HCC-2998 colon
# HCT-116 colon = tested on: HCT-116 colon
# HCT-15 colon = tested on: HCT-15 colon
# HL-60(TB) leukemia = tested on: HL-60(TB) leukemia
# HOP-62 NSCLC = tested on: HOP-62 NSCLC
# HOP-92 NSCLC = tested on: HOP-92 NSCLC
# HS 578T breast = tested on: HS 578T breast
# HT29 colon = tested on: HT29 colon
# IGROV1 ovarian = tested on: IGROV1 ovarian
# K-562 leukemia = tested on: K-562 leukemia
# KM12 colon = tested on: KM12 colon
# LOX IMVI melanoma = tested on: LOX IMVI melanoma
# M14 melanoma = tested on: M14 melanoma
# MALME-3M melanoma = tested on: MALME-3M melanoma
# MCF7 breast = tested on: MCF7 breast
# MDA-MB-231 breast = tested on: MDA-MB-231 breast
# MDA-MB-435 = tested on: MDA-MB-435
# MDA-N = tested on: MDA-N
# MOLT-4 leukemia = tested on: MOLT-4 leukemia
# NCI-H226 lung = tested on: NCI-H226 lung
# NCI-H23 lung = tested on: NCI-H23 lung
# NCI-H460 lung = tested on: NCI-H460 lung
# NCI-H522 lung = tested on: NCI-H522 lung
# NCI/ADR-RES ovarian = tested on: NCI/ADR-RES ovarian
# OVCAR-3 ovarian = tested on: OVCAR-3 ovarian
# OVCAR-4 ovarian = tested on: OVCAR-4 ovarian
# OVCAR-5 ovarian = tested on: OVCAR-5 ovarian
# OVCAR-8 ovarian = tested on: OVCAR-8 ovarian
# PC-3 prostate = tested on: PC-3 prostate
# RPMI-8226 leukemia = tested on: RPMI-8226 leukemia
# RXF 393 renal = tested on: RXF 393 renal
# SF-268 CNS = tested on: SF-268 CNS
# SF-295 CNS = tested on: SF-295 CNS
# SF-539 CNS = tested on: SF-539 CNS
# SK-MEL-2 melanoma = tested on: SK-MEL-2 melanoma
# SK-MEL-28 melanoma = tested on: SK-MEL-28 melanoma
# SK-MEL-5 melanoma = tested on: SK-MEL-5 melanoma
# SK-OV-3 ovarian = tested on: SK-OV-3 ovarian
# SN12C renal = tested on: SN12C renal
# SNB-19 CNS = tested on: SNB-19 CNS
# SNB-75 CNS = tested on: SNB-75 CNS
# SR leukemia = tested on: SR leukemia
# SW-620 colon = tested on: SW-620 colon
# T-47D breast = tested on: T-47D breast
# TK-10 renal = tested on: TK-10 renal
# U251 CNS = tested on: U251 CNS
# UACC-257 melanoma = tested on: UACC-257 melanoma
# UACC-62 melanoma = tested on: UACC-62 melanoma
# UO-31 renal = tested on: UO-31 renal
# A498 renal = tested on: A498 renal
structure (smiles),measurement,setting,value
CC1=C(C)CC2C(=O)N(c3cc(C(C)(C)C)ccc3C(C)(C)C)C(=O)C2C1 (stereo not drawn),TGI,786-0 renal,> 100 µM
same,TGI,A549 NSCLC,> 100 µM
same,TGI,ACHN renal,23.2 µM
same,TGI,BT-549 breast,> 100 µM
same,TGI,CAKI-1 renal,> 100 µM
same,TGI,CCRF-CEM leukemia,> 100 µM
same,TGI,COLO 205 colon,> 100 µM
same,TGI,DU-145 prostate,> 100 µM
same,TGI,EKVX NSCLC,> 100 µM
same,TGI,HCC-2998 colon,> 100 µM
same,TGI,HCT-116 colon,> 100 µM
same,TGI,HCT-15 colon,> 100 µM
same,TGI,HL-60(TB) leukemia,> 100 µM
same,TGI,HOP-62 NSCLC,82.3 µM
same,TGI,HOP-92 NSCLC,> 100 µM
same,TGI,HS 578T breast,56.8 µM
same,TGI,HT29 colon,> 100 µM
same,TGI,IGROV1 ovarian,> 100 µM
same,TGI,K-562 leukemia,> 100 µM
same,TGI,KM12 colon,> 100 µM
same,TGI,LOX IMVI melanoma,> 100 µM
same,TGI,M14 melanoma,> 100 µM
same,TGI,MALME-3M melanoma,16.4 µM
same,TGI,MCF7 breast,17.2 µM
same,TGI,MDA-MB-231 breast,> 100 µM
same,TGI,MDA-MB-435,> 100 µM
same,TGI,MDA-N,> 100 µM
same,TGI,MOLT-4 leukemia,> 100 µM
same,TGI,NCI-H226 lung,> 100 µM
same,TGI,NCI-H23 lung,> 100 µM
same,TGI,NCI-H460 lung,> 100 µM
same,TGI,NCI-H522 lung,23.9 µM
same,TGI,NCI/ADR-RES ovarian,> 100 µM
same,TGI,OVCAR-3 ovarian,> 100 µM
same,TGI,OVCAR-4 ovarian,> 100 µM
same,TGI,OVCAR-5 ovarian,> 100 µM
same,TGI,OVCAR-8 ovarian,> 100 µM
same,TGI,PC-3 prostate,> 100 µM
same,TGI,RPMI-8226 leukemia,> 100 µM
same,TGI,RXF 393 renal,74.9 µM
same,TGI,SF-268 CNS,24.6 µM
same,TGI,SF-295 CNS,> 100 µM
same,TGI,SF-539 CNS,> 100 µM
same,TGI,SK-MEL-2 melanoma,> 100 µM
same,TGI,SK-MEL-28 melanoma,> 100 µM
same,TGI,SK-MEL-5 melanoma,> 100 µM
same,TGI,SK-OV-3 ovarian,> 100 µM
same,TGI,SN12C renal,> 100 µM
same,TGI,SNB-19 CNS,> 100 µM
same,TGI,SNB-75 CNS,56.2 µM
same,TGI,SR leukemia,> 100 µM
same,TGI,SW-620 colon,> 100 µM
same,TGI,T-47D breast,> 100 µM
same,TGI,TK-10 renal,> 100 µM
same,TGI,U251 CNS,> 100 µM
same,TGI,UACC-257 melanoma,> 100 µM
same,TGI,UACC-62 melanoma,31.8 µM
same,TGI,UO-31 renal,> 100 µM
Cc1[nH]c(=O)nc2nc3ccc(Cl)cc3c(NCCNCCO)c12,TGI,786-0 renal,21.2 µM
same,TGI,A498 renal,34.6 µM
same,TGI,A549 NSCLC,33 µM
same,TGI,ACHN renal,27.4 µM
same,TGI,BT-549 breast,30.5 µM
same,TGI,CAKI-1 renal,25.4 µM
same,TGI,CCRF-CEM leukemia,28.1 µM
same,TGI,COLO 205 colon,21.6 µM
same,TGI,DU-145 prostate,29.4 µM
same,TGI,EKVX NSCLC,23.8 µM
same,TGI,HCC-2998 colon,26.5 µM
same,TGI,HCT-116 colon,18.5 µM
same,TGI,HCT-15 colon,31.9 µM
same,TGI,HL-60(TB) leukemia,> 100 µM
same,TGI,HOP-62 NSCLC,20.6 µM
same,TGI,HOP-92 NSCLC,24.2 µM
same,TGI,HS 578T breast,31.8 µM
same,TGI,HT29 colon,21.9 µM
same,TGI,IGROV1 ovarian,25.4 µM
same,TGI,K-562 leukemia,> 100 µM
same,TGI,KM12 colon,23 µM
same,TGI,LOX IMVI melanoma,21 µM
same,TGI,M14 melanoma,25.8 µM
same,TGI,MALME-3M melanoma,28.5 µM
same,TGI,MCF7 breast,26.6 µM
same,TGI,MDA-MB-231 breast,24 µM
same,TGI,MDA-MB-435,25.7 µM
same,TGI,MDA-N,25.4 µM
same,TGI,MOLT-4 leukemia,> 100 µM
same,TGI,NCI-H226 lung,29.8 µM
same,TGI,NCI-H23 lung,21.5 µM
same,TGI,NCI-H460 lung,25 µM
same,TGI,NCI-H522 lung,12.9 µM
same,TGI,NCI/ADR-RES ovarian,42.3 µM
same,TGI,OVCAR-3 ovarian,25.2 µM
same,TGI,OVCAR-4 ovarian,26.2 µM
same,TGI,OVCAR-5 ovarian,26.1 µM
same,TGI,OVCAR-8 ovarian,21.6 µM
same,TGI,PC-3 prostate,27.4 µM
same,TGI,RPMI-8226 leukemia,> 100 µM
same,TGI,RXF 393 renal,28.5 µM
same,TGI,SF-268 CNS,27.9 µM
same,TGI,SF-295 CNS,30.2 µM
same,TGI,SF-539 CNS,20.6 µM
same,TGI,SK-MEL-2 melanoma,28.3 µM
same,TGI,SK-MEL-28 melanoma,31.8 µM
same,TGI,SK-MEL-5 melanoma,25.4 µM
same,TGI,SK-OV-3 ovarian,23.9 µM
same,TGI,SN12C renal,19.8 µM
same,TGI,SNB-19 CNS,21.4 µM
same,TGI,SR leukemia,> 100 µM
same,TGI,SW-620 colon,19.6 µM
same,TGI,T-47D breast,23.1 µM
same,TGI,TK-10 renal,33.1 µM
same,TGI,U251 CNS,21.2 µM
same,TGI,UACC-257 melanoma,25 µM
same,TGI,UACC-62 melanoma,24.3 µM
same,TGI,UO-31 renal,20.7 µM
O=c1[nH]cnc2c1cnn2Cc1cn(CCCCO)nn1,TGI,786-0 renal,> 100 µM
same,TGI,A498 renal,> 100 µM
same,TGI,A549 NSCLC,> 100 µM
same,TGI,ACHN renal,> 100 µM
same,TGI,BT-549 breast,> 100 µM
same,TGI,CAKI-1 renal,> 100 µM
same,TGI,CCRF-CEM leukemia,> 100 µM
same,TGI,COLO 205 colon,> 100 µM
same,TGI,DU-145 prostate,> 100 µM
same,TGI,EKVX NSCLC,> 100 µM
same,TGI,HCC-2998 colon,> 100 µM
same,TGI,HCT-116 colon,> 100 µM
same,TGI,HCT-15 colon,> 100 µM
same,TGI,HOP-62 NSCLC,> 100 µM
same,TGI,HOP-92 NSCLC,> 100 µM
same,TGI,HS 578T breast,> 100 µM
same,TGI,HT29 colon,> 100 µM
same,TGI,IGROV1 ovarian,> 100 µM
same,TGI,K-562 leukemia,> 100 µM
same,TGI,KM12 colon,> 100 µM
same,TGI,LOX IMVI melanoma,> 100 µM
same,TGI,M14 melanoma,> 100 µM
same,TGI,MALME-3M melanoma,> 100 µM
same,TGI,MCF7 breast,> 100 µM
same,TGI,MDA-MB-231 breast,> 100 µM
same,TGI,MDA-MB-435,> 100 µM
same,TGI,MDA-N,> 100 µM
same,TGI,MOLT-4 leukemia,> 100 µM
same,TGI,NCI-H226 lung,> 100 µM
same,TGI,NCI-H23 lung,> 100 µM
same,TGI,NCI-H460 lung,> 100 µM
same,TGI,NCI-H522 lung,> 100 µM
same,TGI,NCI/ADR-RES ovarian,> 100 µM
same,TGI,OVCAR-3 ovarian,> 100 µM
same,TGI,OVCAR-4 ovarian,> 100 µM
same,TGI,OVCAR-5 ovarian,> 100 µM
same,TGI,OVCAR-8 ovarian,> 100 µM
same,TGI,PC-3 prostate,> 100 µM
same,TGI,RPMI-8226 leukemia,> 100 µM
same,TGI,RXF 393 renal,> 100 µM
same,TGI,SF-268 CNS,> 100 µM
same,TGI,SF-295 CNS,> 100 µM
same,TGI,SF-539 CNS,> 100 µM
same,TGI,SK-MEL-2 melanoma,> 100 µM
same,TGI,SK-MEL-28 melanoma,> 100 µM
same,TGI,SK-MEL-5 melanoma,> 100 µM
same,TGI,SK-OV-3 ovarian,> 100 µM
same,TGI,SN12C renal,> 100 µM
same,TGI,SNB-19 CNS,> 100 µM
same,TGI,SR leukemia,> 100 µM
same,TGI,SW-620 colon,> 100 µM
same,TGI,T-47D breast,> 100 µM
same,TGI,TK-10 renal,> 100 µM
same,TGI,U251 CNS,> 100 µM
same,TGI,UACC-257 melanoma,> 100 µM
same,TGI,UACC-62 melanoma,> 100 µM
same,TGI,UO-31 renal,> 100 µM
